Source: US12637438B2, “Protoporphyrinogen oxidase inhibitors” (Enko Chem, Inc., priority 2021, dated 2026)

Tested on: PPO dG210 mutant Tall Waterhemp (Amaranthus tuberculatus)
Type: in vivo
Settings: relative to Flumioxazin, Sulfentrazone, and Pyroxasulfone

For `C#CCN1C(=O)C(F)(F)Oc2cc(F)c(-c3c(F)c(F)c(F)c(F)c3F)cc21` [Compound 2, 2,2,7-trifluoro-6-(perfluorophenyl)-4-(prop-2-yn-1-yl)-2H-benzo[b][1,4]oxazin-3(4H)-one], the “resistant weed control, comparison in words” value was “more effective at resistant weed control than the other commercially available herbicides”.
